Here are results for seven compounds from patent publication US20160272617A1, “SUBSTITUTED PHENYLALANINE DERIVATIVES” (BAYER PHARMA AKTIENGESELLSCHAFT, priority 2013, published 2016).

One experiment addresses T1, human factor XIa (Homo sapiens, UniProt P03951).
T1 construct: purchased Kordia
The experiment in a line: Measurement of FXIa inhibition (fluorogenic peptide substrate Boc-Glu(OBzl)-Ala-Arg-AMC). It counts as biochemical. To be noted: factor XIa from Kordia, 15 min preincubation, 30 min at 22° C., fluorescence. In short, it runs like this: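 Released AMC fluorescence (360/460 nm) read after 30 min at 22 °C. The reaction was started with Boc-Glu(OBzl)-Ala-Arg-AMC (10 μM stock) after a 15 min preincubation of the enzyme (0.45 nM stock) with compound (final 50 μM to 0.00013 μM).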

For a further experiment, the system named is human and animal plasma. In words: Determination of anticoagulatory activity: activated partial thromboplastin time (aPTT) in plasma. To be noted: concentration of test substance which brings about a 1.5-fold extension of the aPTT; plasma species not given. In short, it runs like this:
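Citrated plasma (1:9, 0.11 M citrate; 4000 g, 15 min) from human or animal blood incubated with test compound and cephalin/kaolin PTT reagent for 3 min at 37° C.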

Counter-ions that a name gives are not always drawn.

T1 sequence (P03951 388-625 limits assumed): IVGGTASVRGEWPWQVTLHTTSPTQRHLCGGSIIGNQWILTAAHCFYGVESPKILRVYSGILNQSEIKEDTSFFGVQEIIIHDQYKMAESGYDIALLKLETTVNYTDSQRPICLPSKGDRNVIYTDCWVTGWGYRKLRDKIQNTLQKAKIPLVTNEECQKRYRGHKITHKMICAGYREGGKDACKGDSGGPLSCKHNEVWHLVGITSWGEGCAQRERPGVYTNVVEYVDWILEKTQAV
T1 sequence (P03951 19-387 partner limits assumed): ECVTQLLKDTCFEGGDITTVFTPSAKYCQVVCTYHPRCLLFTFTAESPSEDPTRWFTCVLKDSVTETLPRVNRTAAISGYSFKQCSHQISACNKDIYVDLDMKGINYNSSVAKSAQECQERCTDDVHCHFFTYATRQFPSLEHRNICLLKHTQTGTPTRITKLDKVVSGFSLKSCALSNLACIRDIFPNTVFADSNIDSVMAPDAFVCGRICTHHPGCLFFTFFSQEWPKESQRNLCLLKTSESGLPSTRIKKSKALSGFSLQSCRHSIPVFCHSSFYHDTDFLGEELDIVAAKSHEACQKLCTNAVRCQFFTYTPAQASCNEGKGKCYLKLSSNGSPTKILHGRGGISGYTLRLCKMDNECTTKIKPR

One may read the IC50 as the concentration that gives 50% inhibition. Read a high IC50 as lower potency. With `CCN(CC)C1CCC(NC(=O)c2ccc(-c3ccc(C[C@H](NC(=O)[C@H]4CC[C@H](CN)CC4)C(=O)Nc4ccc5c(Cl)n[nH]c5c4)cc3)c(C)c2)CC1` (stereo partly drawn) [Example 94, 4′-{(2S)-2-({[trans-4-(Aminomethyl)cyclohexyl]carbonyl}amino)-3-[(3-chloro-1H-indazol-6-yl)amino]-3-oxopropyl}-N-[4-(diethylamino)cyclohexyl]-2-methylbiphenyl-4-carboxamide hydrochloride], the IC50 at human factor XIa stood at 9.2 nM. Moreover, the “aPTT” value with human and animal plasma came to 0.23 µmol/L.

The compound `Cc1cc(C(=O)NC2CCN(C(C)C)CC2)ccc1-c1ccc(C[C@H](NC(=O)[C@H]2CC[C@H](CN)CC2)C(=O)Nc2ccc(-c3nn[nH]n3)c(F)c2)cc1` [Example 89, 4′-[(2S)-2-({[trans-4-(Aminomethyl)cyclohexyl]carbonyl}amino)-3-{[3-fluoro-4-(2H-tetrazol-5-yl)phenyl]amino}-3-oxopropyl]-N-(1-isopropylpiperidin-4-yl)-2-methylbiphenyl-4-carboxamide hydrochloride] returned an IC50 against human factor XIa of 4.3 nM. In addition, the “aPTT” value with human and animal plasma was determined as 0.03 µmol/L.

For `Cc1cc(C(=O)NC2CCNCC2)ccc1-c1ccc(C[C@H](NC(=O)[C@H]2CC[C@H](CN)CC2)C(=O)Nc2ccc3nc(C(F)(F)C(F)(F)C(F)(F)F)[nH]c3c2)cc1` [Example 85, 4′-[(2S)-2-({[trans-4-(Aminomethyl)cyclohexyl]carbonyl}amino)-3-{[2-(heptafluoropropyl)-1H-benzimidazol-6-yl]amino}-3-oxopropyl]-2-methyl-N-(piperidin-4-yl)biphenyl-4-carboxamide hydrochloride], the IC50 against human factor XIa was found to be 16 nM. Further, in the experiment with human and animal plasma, the “aPTT” value stood at 0.12 µmol/L.

On to `Cc1cc(C(=O)NC2CCCNC2=O)ccc1-c1ccc(C[C@H](NC(=O)[C@H]2CC[C@H](CN)CC2)C(=O)Nc2ccc(-c3nc(C(F)(F)C(F)(F)C(F)(F)F)n[nH]3)cc2)cc1` (stereo partly drawn) [Example 88, 4′-[(2S)-2-({[trans-4-(Aminomethyl)cyclohexyl]carbonyl}amino)-3-({4-[3-(heptafluoropropyl)-1H-1,2,4-triazol-5-yl]phenyl}amino)-3-oxopropyl]-2-methyl-N-(2-oxopiperidin-3-yl)biphenyl-4-carboxamide hydrochloride], for which the IC50 against human factor XIa is 2.1 nM. Further, the “aPTT” value with human and animal plasma came out at 0.31 µmol/L.

`Cc1cc(C(=O)NC2CCC(N(C)Cc3ccccc3)CC2)ccc1-c1ccc(C[C@H](NC(=O)[C@H]2CC[C@H](CN)CC2)C(=O)Nc2ccc(-c3nnn[nH]3)cc2)cc1` (stereo partly drawn) [Example 146, 4′-[(2S)-2-({[trans-4-(Aminomethyl)cyclohexyl]carbonyl}amino)-3-oxo-3-{[4-(1H-tetrazol-5-yl)phenyl]amino}propyl]-N-{4-[benzyl(methyl)amino]cyclohexyl}-2-methylbiphenyl-4-carboxamide hydrochloride]: at human factor XIa, the IC50 was 1.8 nM. Moreover, the “aPTT” value with human and animal plasma is 0.07 µmol/L.

The compound `NC[C@H]1CC[C@H](C(=O)N[C@@H](Cc2ccc(-c3ccc(C(=O)N[C@@H]4CCNC4)cc3Cl)cc2)C(=O)Nc2ccc(-c3nn[nH]n3)cc2)CC1` [Example 12, 4′-[(2S)-2-({[trans-4-(Aminomethyl)cyclohexyl]carbonyl}amino)-3-oxo-3-{[4-(2H-tetrazol-5-yl)phenyl]amino}propyl]-2-chloro-N-[(3R)-pyrrolidin-3-yl]biphenyl-4-carboxamide hydrochloride] had an IC50 at human factor XIa of 2.7 nM. Also, the “aPTT” value with human and animal plasma amounted to 0.1 µmol/L.

With `Cc1cc(C(=O)NCC[N+](C)(C)C)ccc1-c1ccc(C[C@H](NC(=O)[C@H]2CC[C@H](CN)CC2)C(=O)Nc2ccc(-c3nn[nH]n3)cc2)cc1` [Example 41, 2-[({4′-[(2S)-2-({[trans-4-(Aminomethyl)cyclohexyl]carbonyl}amino)-3-oxo-3-({[4-(2H-tetrazol-5-yl)phenyl]amino}propyl]-2-methylbiphenyl-4-yl}carbonyl)amino]-N,N,N-trimethylethanaminium hydrochloride], on human factor XIa, half-maximal inhibition (IC50) required 6 nM. For the same compound, the “aPTT” value in the experiment on human and animal plasma turned out to be 0.18 µmol/L.
